A short description of series [1]: Therapeutic index, ratio of CC50 for human TZM-bl cells to IC50 for HIV1 NL4.3 infected in human TZM-bl cells. The class given is cell-based. As to conditions: HIV1 NL4.3 infected TZM-bl cells, read-out: Ratio CC50/IC50.
The subject of series [2] is Human immunodeficiency virus 1. As to the kind of experiment: Antiviral activity against HIV1 NL4.3 infected in human TZM-bl cells expressing CXCR4-tropic incubated for 1 hr prior to infection measured after 48 hrs by luciferase reporter gene assay. In kind it is functional, organism-based. As to conditions: Human immunodeficiency virus 1, NL4.3, TZM-bl. (In a reporter assay the amount or activity of a reporter protein is the signal.)

A short description of series [3]: Cytotoxicity against human TZM-bl cells assessed as cell viability after 48 hrs by MTT assay. In kind it is cell-based. The note with it: for CC50 at 48 h: TZM-bl cells. A general note: Tetrazolium assays rely on reduction of a dye to a coloured formazan, in cell work by metabolically active cells.
The subject of series [4] is Human immunodeficiency virus 1. As to the kind of experiment: Antiviral activity against HIV1 NL4.3 infected in human TZM-bl cells expressing CXCR4-tropic at 50 uM incubated for 1 hr prior to infection measured after 48 hrs by luciferase reporter gene assay. The class given is functional, organism-based.
In series [5] the target is Human immunodeficiency virus type 1 integrase (Human immunodeficiency virus 1) (UniProt Q7ZJM1). Description: (§1) Inhibition of HIV1 integrase.
Series [6] deals with Human immunodeficiency virus type 1 integrase (Human immunodeficiency virus 1, UniProt Q7ZJM1). The series is described as §1.

Structures are written as SMILES. Active and inactive are the calls of the source. The calls are words filed in the database; no cut-off is given here.

Chain of Human immunodeficiency virus type 1 integrase (Human immunodeficiency virus 1) (Q7ZJM1 as listed by the source): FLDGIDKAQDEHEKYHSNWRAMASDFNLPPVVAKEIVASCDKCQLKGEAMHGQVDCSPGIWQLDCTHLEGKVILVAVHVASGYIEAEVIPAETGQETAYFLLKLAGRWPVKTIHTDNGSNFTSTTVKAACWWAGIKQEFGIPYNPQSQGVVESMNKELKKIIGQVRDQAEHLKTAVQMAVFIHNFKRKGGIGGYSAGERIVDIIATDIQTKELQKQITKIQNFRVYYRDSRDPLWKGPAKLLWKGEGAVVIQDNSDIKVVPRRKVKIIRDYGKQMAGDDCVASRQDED
Chain of Human immunodeficiency virus type 1 integrase (Q7ZJM1 whole entry): as the sequence (Q7ZJM1 as listed by the source) above

By CC50 is commonly meant the concentration at which the toxic effect on the cells reaches its halfway point. `COC(=O)C12C=CC(=O)C(O)=C1CC(CC/C=C(\C)CO)=CC2` (stereo not drawn): in series [1], the selectivity ratio worked out at 1. Moreover, the IC50 is 285 µM in series [2] (read-out: IC50) and 282 µM in series [2] (read-out: pIC50 (converted)). Further, in series [3], the CC50 at 48 h came out at 383 µM.

Turning to `COC(=O)C12C=CC(=O)C(O)=C1CC=C(C)C2C/C=C(\C)CO` (stereo not drawn), the selectivity ratio in series [1] amounted to 13. Further, the IC50 in series [2] (read-out: IC50) was 72.7 µM; in series [2] (read-out: pIC50 (converted)), 72.4 µM. In series [3], the 50% cytotoxic concentration (CC50) at 48 h was determined as 928 µM.

For `COC(=O)C12C=CC(=O)C(O)=C1CC(CC/C=C(\C)C=O)=CC2` (stereo not drawn), the selectivity ratio in series [1] is 4. In addition, the results for the IC50 in series [2] (read-out: IC50) and in series [2] (read-out: pIC50 (converted)) were 172 µM and 170 µM, respectively. Also, in series [3], the CC50 at 48 h was determined as 625 µM.

`CC(C)=CCCC1=CCc2c(O)ccc(O)c2C1`: the result in series [4] was inactive. For the same molecule, the cytotoxic concentration (CC50) result in series [3] (tzm, 48 h) is listed as “Not Active”.

Turning to `Cc1nnc(C(=O)NC(C)(C)c2nc(C(=O)NCc3ccc(F)cc3)c(O)c(=O)n2C)o1`, the IC50 in series [2] (read-out: IC50) was 0.5 µM; in series [2] (read-out: pIC50 (converted)) it was 0.501 µM. The 50% cytotoxic concentration (CC50) at 48 h in series [3] was 856 µM.

Take `CC(C)=CCC1C(C)=CCc2c(O)ccc(O)c21` (stereo not drawn): in series [5], the inhibition result is “Dose-dependent effect”. Besides, the IC50 in series [6] is 11.5 µM; in series [2] (read-out: IC50), 12.4 µM; in series [2] (read-out: pIC50 (converted)), 12.3 µM. Besides, the selectivity ratio in series [1] came to 11. The CC50 at 48 h in series [3] turned out to be 140 µM.

`COC(=O)C12C=CC(=O)C(OC(C)=O)=C1CC=C(C)C2CC=C(C)C` (stereo not drawn): the selectivity ratio in series [1] amounted to 18. Besides, the IC50 in series [2] (read-out: IC50) was 36.7 µM; in series [2] (read-out: pIC50 (converted)), 36.3 µM. Besides, the CC50 at 48 h in series [3] worked out at 677 µM.

Turning to `COC(=O)C12C=CC(=O)C(O)=C1CC=C(C)C2CC=C(C)C` (stereo not drawn), the selectivity ratio in series [1] was found to be 11. The results for the IC50 in series [2] (read-out: IC50) and in series [2] (read-out: pIC50 (converted)) were 5 µM and 5.01 µM, respectively. In addition, the CC50 at 48 h in series [3] came to 56.4 µM.

Regarding `CC(C)=CCC1C(C)=CCc2c1ccc(O)c2O` (stereo not drawn), the inhibition result in series [5] was “Dose-dependent effect”. The IC50 is 11.1 µM in series [6], 4.6 µM in series [2] (read-out: IC50) and 4.57 µM in series [2] (read-out: pIC50 (converted)). Also, the selectivity ratio in series [1] is 46. In series [3], the CC50 at 48 h worked out at 211 µM.

With `COC(=O)C12C=CC(=O)C(O)=C1CC=C(C)C2C/C=C(\C)C=O` (stereo not drawn), the selectivity ratio in series [1] was 10. The values for the IC50 in series [2] (read-out: IC50) and in series [2] (read-out: pIC50 (converted)) were 60.7 µM and 60.3 µM, respectively. Also, in series [3], the CC50 at 48 h turned out to be 627 µM.

As for `CC(C)=CCCC1=CCc2ccc(O)c(O)c2C1`, the inhibition result in series [5] was “Dose-dependent effect”. Besides, the IC50 in series [6] was 13.4 µM; in series [2] (read-out: IC50), 12.3 µM; in series [2] (read-out: pIC50 (converted)), 12.3 µM. The selectivity ratio in series [1] stood at 11. Besides, the half-maximal cytotoxic concentration (CC50) at 48 h in series [3] stood at 138 µM.

Consider `COC(=O)C12C=CC(=O)C(O)=C1CC(CCC=C(C)C)=CC2` (stereo not drawn), for which the selectivity ratio in series [1] came to 4. The IC50 in series [2] (read-out: IC50) is 171 µM; in series [2] (read-out: pIC50 (converted)), 170 µM. For the same molecule, in series [3], the CC50 at 48 h came out at 693 µM.

`C=C(C=O)[C@@H]1C[C@@]2(C)C(=CC1=O)[C@H](OC(=O)/C(C)=C/C(C)CCCC)CC[C@@H]2C(=O)O` (stereo partly drawn): the IC50 in series [2] (read-out: IC50) and in series [2] (read-out: pIC50 (converted)) was 10 µM in each case.
